Experimental findings from PubChem BioAssay (NCI) are described below.

Test systems include HOP-62 NSCLC; ACHN renal; RPMI-8226 leukemia; OVCAR-4 ovarian; A549 NSCLC; MCF7 breast; SF-295 CNS; HOP-92 NSCLC; T-47D breast; PC-3 prostate.
Experiment in all cases: inhibition of tumour cell growth, NCI panel, 48 h

Several values for one entry are separate records, joined by “and”; a condition that tells them apart may be missing. Equal entries are not always repeated.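 Five concentrations, 48 hours, 96-well plates. Here, GI50 denotes the concentration required for 50% inhibition of growth. Definition used: TGI = concentration required for complete inhibition of growth.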

In the case of `COc1ccc(/C=C/c2cc(N3CCOCC3)c3cc(F)c(F)cc3n2)cc1OC`, the GI50 is 0.667 µM with HOP-62 NSCLC; 0.615 µM with ACHN renal; 1.5 µM in the test on RPMI-8226 leukemia; 0.253 µM in the test on OVCAR-4 ovarian; 1.67 µM with A549 NSCLC; 0.389 µM in the test with MCF7 breast. Moreover, the GI50 with SF-295 CNS was 0.653 µM; with HOP-92 NSCLC, 1.36 µM; in the test on T-47D breast, 0.449 µM; with PC-3 prostate it was 0.846 µM. For the same compound, the TGI with HOP-62 NSCLC came to 7.25 µM; in the test with ACHN renal it was 12.4 µM; in the test with RPMI-8226 leukemia, 9 µM; in the test with OVCAR-4 ovarian, 2.04 µM; in the test with A549 NSCLC, 8.99 µM; in the test with MCF7 breast, 9.48 µM. Moreover, the TGI in the test with SF-295 CNS is 14.9 µM; in the test on HOP-92 NSCLC, 6.53 µM; in the test with T-47D breast it was 5.69 µM; in the test on PC-3 prostate it was 14.4 µM.
With `O=C1c2ccccc2-c2c1c1ccccc1c(=O)n2CCCN1CCN(CCCn2c3c(c4ccccc4c2=O)C(=O)c2ccccc2-3)CC1`, the GI50 with HOP-62 NSCLC was 6.41 µM; with ACHN renal it was 22.4 µM; in the test on RPMI-8226 leukemia, above 52.2 µM; in the test on OVCAR-4 ovarian it was above 100 µM; in the test with A549 NSCLC, above 100 µM; in the test with MCF7 breast, above 100 µM. In addition, the GI50 in the test on SF-295 CNS was 12.6 µM; with HOP-92 NSCLC, 19.9 µM; with T-47D breast, above 100 µM; with PC-3 prostate, above 100 µM. The TGI was 53.4 µM in the test on HOP-62 NSCLC; above 100 µM in the test on ACHN renal; above 100 µM with RPMI-8226 leukemia; above 100 µM in the test with OVCAR-4 ovarian; above 100 µM with A549 NSCLC; above 100 µM with MCF7 breast. Besides, the TGI was above 86.1 µM in the test with SF-295 CNS, 74.1 µM in the test on HOP-92 NSCLC, above 100 µM with T-47D breast and above 100 µM with PC-3 prostate.
`O=S1(=O)CS(=O)(=O)OCCCO1`: the TGI with HOP-62 NSCLC, with ACHN renal, in the test with RPMI-8226 leukemia, in the test with OVCAR-4 ovarian, in the test with A549 NSCLC and in the test on MCF7 breast was above 100 µM each time. In addition, the TGI in the test with SF-295 CNS, with HOP-92 NSCLC, in the test with T-47D breast and in the test on PC-3 prostate was above 100 µM throughout.
On to `CC(=O)OC[C@]12CC[C@@H]([C@@H](C)C(N)=O)[C@@H]1[C@H]1CC[C@@H]3[C@@]4(C)CC[C@H](OC(C)=O)C(C)(C)[C@@H]4CC[C@@]3(C)[C@]1(C)CC2`, for which the GI50 was 11 µM in the test with HOP-62 NSCLC; 5.78 µM in the test with ACHN renal; 2.63 µM in the test on RPMI-8226 leukemia; 4.72 µM with OVCAR-4 ovarian; 3.97 µM in the test on A549 NSCLC; 3.27 µM with MCF7 breast. Besides, the GI50 with SF-295 CNS was 8.57 µM; in the test with HOP-92 NSCLC, 5.21 µM; with T-47D breast, 2.91 µM; with PC-3 prostate, 2.67 µM. The TGI in the test on HOP-62 NSCLC amounted to 26.6 µM; in the test on ACHN renal, 27.3 µM; in the test with RPMI-8226 leukemia it was 12.4 µM; in the test on OVCAR-4 ovarian it was 18.5 µM; in the test with A549 NSCLC, 47.5 µM; in the test with MCF7 breast it was 12.4 µM. Further, the TGI with SF-295 CNS turned out to be 29.8 µM; in the test with HOP-92 NSCLC, 19.4 µM; in the test on T-47D breast, 12.9 µM; in the test with PC-3 prostate it was 11.6 µM.
On to `COc1c(CNC(=O)CCl)cc2[nH]c(C)cc2c1CNC(=O)CCl`, for which the GI50 in the test on HOP-62 NSCLC is 6.1 µM; with ACHN renal, 5.47 µM; in the test with RPMI-8226 leukemia it was 5.17 µM; with OVCAR-4 ovarian, 4.55 µM; in the test with A549 NSCLC, 7.38 µM; with MCF7 breast it was 2.81 µM. Moreover, the GI50 with SF-295 CNS was 12.8 µM; with HOP-92 NSCLC, 4.08 µM; in the test with T-47D breast, 3.55 µM; in the test on PC-3 prostate, 12.2 µM. Also, the TGI in the test with HOP-62 NSCLC was 20.2 µM; in the test with ACHN renal, 31.6 µM; with RPMI-8226 leukemia it was 52.8 µM; with OVCAR-4 ovarian, 22.3 µM; in the test on A549 NSCLC, 26.7 µM; in the test on MCF7 breast it was 20.9 µM. Moreover, the TGI with SF-295 CNS was found to be 71.9 µM; with HOP-92 NSCLC, 20.2 µM; in the test with T-47D breast it was 23.1 µM; in the test with PC-3 prostate, 33.9 µM.
For the compound `CCN(CC)C(=S)SC1CCOP(=O)(N(CCCl)CCCl)N1C` (centres undefined), the TGI in the test on HOP-62 NSCLC is above 100 µM; with ACHN renal, above 67.5 µM; in the test on RPMI-8226 leukemia it was above 61.2 µM; in the test with OVCAR-4 ovarian it was 46.4 µM; with A549 NSCLC, above 100 µM; in the test with MCF7 breast, above 100 µM. In addition, the TGI in the test on SF-295 CNS was above 100 µM; in the test on HOP-92 NSCLC it was 43.9 µM; in the test with T-47D breast it was above 100 µM; in the test with PC-3 prostate, above 100 µM.
`COc1cc2c3c(n(C)c(=O)c2cc1OC)-c1cc2c(cc1/C3=C\CCCBr)OCO2`: the TGI with HOP-62 NSCLC was 17.1 µM; in the test with ACHN renal it was 25.3 µM; in the test with RPMI-8226 leukemia, above 100 µM; with OVCAR-4 ovarian, above 100 µM; in the test on A549 NSCLC, above 100 µM; in the test on MCF7 breast, above 64.8 µM. Further, the TGI was 30.8 µM with SF-295 CNS, above 100 µM in the test on HOP-92 NSCLC, above 100 µM with T-47D breast and above 100 µM in the test with PC-3 prostate. Also, the GI50 in the test with ACHN renal was 7.37 µM; in the test with RPMI-8226 leukemia, 29.1 µM; in the test on OVCAR-4 ovarian, 39.2 µM; in the test on A549 NSCLC, above 100 µM; in the test on MCF7 breast it was 16.2 µM; in the test with SF-295 CNS, 9.16 µM. Moreover, the GI50 in the test on HOP-92 NSCLC is 92.4 µM; with T-47D breast, above 91.3 µM; with PC-3 prostate, above 95.2 µM.
Regarding `COc1cc([C@@H]2c3cc4c(cc3[C@H](O)[C@H]3COC(=O)[C@H]23)OCO4)cc(OC)c1OC`, the GI50 in the test on HOP-62 NSCLC was below 0.005 µM; in the test with ACHN renal, below 0.01 µM; with RPMI-8226 leukemia, below 0.01 µM; in the test with OVCAR-4 ovarian it was below 0.005 µM; in the test on A549 NSCLC, below 0.005 µM; in the test with MCF7 breast, below 0.01 µM. Besides, the GI50 in the test with SF-295 CNS is below 0.01 µM; in the test on HOP-92 NSCLC it was below 0.01 µM; in the test on T-47D breast, above 84.5 µM; in the test on PC-3 prostate, below 0.01 µM. For the same compound, the TGI with HOP-62 NSCLC is > 100 µM and 50 µM and > 75 µM; in the test on ACHN renal it was > 100 µM and 50 µM; in the test on A549 NSCLC, > 100 µM and 50 µM; in the test with MCF7 breast, > 100 µM and 10.3 µM; in the test on T-47D breast, > 100 µM and 34.1 µM; in the test with PC-3 prostate, > 100 µM and 50 µM.
Turning to `C=C1CCC2C3(C)COC(c4ccc(SC)cc4)OC3CCC2(C)C1C/C=C1/C(=O)OCC1O` (centres undefined), the GI50 in the test with HOP-62 NSCLC was 17.3 µM; in the test with ACHN renal, 6.25 µM; with RPMI-8226 leukemia it was 2.64 µM; in the test with OVCAR-4 ovarian, 5.81 µM; in the test on A549 NSCLC it was 5.31 µM; in the test with MCF7 breast, 3.04 µM. The GI50 in the test on SF-295 CNS is 8.14 µM; in the test with HOP-92 NSCLC, 5.19 µM; in the test on T-47D breast, 2.53 µM; in the test on PC-3 prostate it was 5.67 µM. The TGI in the test with HOP-62 NSCLC turned out to be 32.8 µM; with ACHN renal, 17.2 µM; in the test with RPMI-8226 leukemia, 15.1 µM; in the test with OVCAR-4 ovarian it was 18.7 µM; with A549 NSCLC it was 18.4 µM; with MCF7 breast it was 11.7 µM. In addition, the TGI amounted to 23.7 µM with SF-295 CNS, 17.1 µM in the test with HOP-92 NSCLC, 13.7 µM in the test on T-47D breast and 20.2 µM in the test with PC-3 prostate.
For the compound `OC(COc1cccc2ccccc12)CN1CCN(c2ccccc2)CC1` (centres undefined), the GI50 is 13.4 µM in the test on HOP-62 NSCLC; 16.2 µM with ACHN renal; 17 µM in the test on RPMI-8226 leukemia; 14.1 µM in the test on OVCAR-4 ovarian; 19.3 µM in the test on A549 NSCLC; 17.3 µM with MCF7 breast. Moreover, the GI50 in the test on SF-295 CNS was 12.6 µM; in the test with HOP-92 NSCLC it was 4.86 µM; in the test with T-47D breast, 17.3 µM; with PC-3 prostate, 12.5 µM. Moreover, the TGI in the test with HOP-62 NSCLC was 26.8 µM; with ACHN renal it was 30.6 µM; in the test with RPMI-8226 leukemia, 42.9 µM; in the test on OVCAR-4 ovarian it was 27.6 µM; in the test on A549 NSCLC it was 36.6 µM; in the test with MCF7 breast it was 31.9 µM. Besides, the TGI is 26.6 µM in the test on SF-295 CNS, 19 µM in the test with HOP-92 NSCLC, 34.7 µM in the test on T-47D breast and 29 µM with PC-3 prostate.
In the case of `COC(=O)c1ccc([N+](=O)[O-])c(O)c1`, the TGI in the test on HOP-62 NSCLC, in the test with ACHN renal, in the test with RPMI-8226 leukemia, with OVCAR-4 ovarian, with A549 NSCLC and in the test with MCF7 breast was above 100 µM throughout. In addition, the TGI with SF-295 CNS, in the test on HOP-92 NSCLC, in the test with T-47D breast and in the test on PC-3 prostate was above 100 µM each time.
Regarding `CC1=C(/C=C/C(C)=C/C=C/C(C)=C/C(=O)Nc2ccc(O)cc2)C(C)(C)CCC1`, the TGI in the test with HOP-62 NSCLC was 9.95 µM and 15.2 µM; with ACHN renal, 16.3 µM and 17.7 µM; in the test on RPMI-8226 leukemia, 8.9 µM and 9.14 µM; in the test with OVCAR-4 ovarian, 9.53 µM and 14.8 µM; with A549 NSCLC, 14.2 µM and 26.5 µM; with MCF7 breast, 9.59 µM and 12.9 µM. Moreover, the TGI in the test with SF-295 CNS was 3.74 µM and 12.3 µM; with HOP-92 NSCLC it was 4.1 µM and 6.11 µM; with T-47D breast, 9.24 µM and 15.5 µM; in the test with PC-3 prostate, 4.61 µM and 12.7 µM. Further, the GI50 in the test with ACHN renal was 4.79 µM; in the test with RPMI-8226 leukemia it was 1.09 µM; in the test with OVCAR-4 ovarian, 2.6 µM; in the test on A549 NSCLC it was 2.43 µM; in the test with MCF7 breast, 1.4 µM; in the test with SF-295 CNS it was 0.932 µM. Moreover, the GI50 was 1.77 µM in the test with HOP-92 NSCLC, 1.31 µM with T-47D breast and 1.37 µM in the test with PC-3 prostate.
